Data taken from US10329542B2, “HBV RNAse H purification and enzyme inhibitors” (Saint Louis University, priority 2012, dated 2019).

How the values were obtained:
[1] = tested on: HBV; assay: HBV genomic replication assays (Table 2); format: cell-based, Hepatitis B virus; details: class by active concentration
Procedure: Huh7 cells were maintained in Dulbecco's modified Eagle's medium with 10% fetal bovine serum at 37° C. in 5% CO2. Cells were seeded into 60 mm dishes and transfected at 70% confluency with 2.6 μg of plasmids using TransIT-LT1 (Mirus, Inc.). Test compounds were added the morning following transfection at 10 or 50 μM, and fresh medium containing the compounds was provided every 1-2 days. Four or five days post-transfection HBV cores were isolated by lysis of the cells in 10 mM Tris pH 7.5, 1 mM EDTA, 0.25% NP40, 50 mM NaCl, and 8% sucrose followed by sedimentation through a 30% sucrose cushion as described (Travis, et al., 1998). Viral DNAs were isolated from cytoplasmic core particle preparations by proteinase K digestion followed by phenol/chloroform extraction as described (Gong et al., 2001). Duplicate aliquots of the nucleic acids were treated with 2 U E. coli DNAse-free RNAseH (Invitrogen) at 37° C. for 30 min. or were mock treated. The nucleic acid samples were resolved by electrophoresis on 1.2% agarose gels and detected by Southern blotting with ^32P-labeled HBV DNA as a probe. […]

[2] = target: T1, HBV genotype D RNAseH (HRHPL) (Hepatitis B virus genotype D subtype ayw, UniProt P03156, INS679M); assay: Oligonucleotide-directed RNAseH cleavage assay, HBV genotype D; format: biochemical; details: for Residual activity at 10 uM, Genotype D: ± standard deviation, 3 to 7 replicates; for Activity vs. HBV Biochemical vs. gtD: class by concentration giving inhibition (10, 20, 60 μM)
T1 construct: HRHPL contains HBV genotype D (Genbank V01460) polymerase residues 684-845; made in house; host or cells: E. coli BL21 codon+
Procedure: (§1) For the oligonucleotide-directed RNAseH cleavage assay (Gong et al., 2001), 6 μl protein extract (typical protein concentration 2.8 mg/ml) was mixed with 0.5 μg internally ^32P-labeled DRF+ RNA (nucleotides 2401-2605 of the duck HBV genome plus 60 nucleotides of flanking sequences from pBluescript) and 3 μg oligonucleotide D2507- or its corresponding negative control D2526+ on ice in 20 μl under the conditions in Table 1. Some reactions in FIG. 5 employed oligonucleotide D2543M-Sal or its D2453+ negative control as indicated. The reactions were incubated at 42° C. for 90 min. and terminated by addition of Laemmli protein loading buffer and boiling. The samples were resolved by 12% SDS-PAGE, the gels were stained with Coomassie blue to monitor protein loading, and labeled RNA was detected by autoradiography. Candidate inhibitors were dissolved in DMSO and added at the indicated concentrations during assembly of the reactions. Control reactions lacking the compounds contained DMSO as a vehicle control. The RNAseH autoradiograms were scanned and quantified with ImageJ.
(§2) Oligonucleotide-directed RNAseH cleavage assays (Gong et al., 2001) were performed as described (Tavis et al., 2013). Briefly, HBV RNAseH extracts were mixed with a 264 nt-long internally ^32P-labeled RNA plus an excess of a complementary DNA oligonucleotide or its inverse-complement as a negative control in a final concentration of 65 mM Tris pH 8.0, 190 mM NaCl, 5 mM MgCl2, 5 mM dTT, 0.05% NP40, and 6% glycerol. βTJ was dissolved in DMSO and added at the indicated concentrations; the final concentration of DMSO in all reactions was 1%. The reactions were incubated at 42° C. for 90 min. and terminated by addition of Laemmli protein electrophoresis buffer. The samples were resolved by SDS-PAGE, labeled RNA was detected by autoradiography, the autoradiograms were scanned, and the RNA cleavage products were quantified with ImageJ (National Institutes of Health). IC50 values were calculated by non-linear regression using GraphPad Prism (GraphPad Software, Inc.).

[3] = tested on: HBV genotype H RNAseH; assay: Oligonucleotide-directed RNAseH cleavage assay, HBV genotype H; format: biochemical, Hepatitis B virus; details: 10 μM; for Residual activity at 10 uM, Genotype H: ± standard deviation, 3 to 7 replicates
Procedure: as §1, with “ImageJ. The oligonucleotides were: D2526+([…]; SEQ ID NO:8), D2507-([…]; SEQ ID NO:9), D2453+([…]; SEQ ID NO:10), and D2543M-Sal ([…]; SEQ ID NO:11).” for “ImageJ.”
as §2

[4] = target: T2, human RNAseH1 (Homo sapiens, UniProt O60930); assay: Oligonucleotide-directed RNAseH assay, recombinant human RNAseH1; format: biochemical; details: for Activity vs. human RNAseH1: class by concentration giving inhibition (10, 20, 60 μM)
T2 construct: hexahistidine (N); made in house; host or cells: E. coli BL21 codon+
T2 sequence (O60930 1-286): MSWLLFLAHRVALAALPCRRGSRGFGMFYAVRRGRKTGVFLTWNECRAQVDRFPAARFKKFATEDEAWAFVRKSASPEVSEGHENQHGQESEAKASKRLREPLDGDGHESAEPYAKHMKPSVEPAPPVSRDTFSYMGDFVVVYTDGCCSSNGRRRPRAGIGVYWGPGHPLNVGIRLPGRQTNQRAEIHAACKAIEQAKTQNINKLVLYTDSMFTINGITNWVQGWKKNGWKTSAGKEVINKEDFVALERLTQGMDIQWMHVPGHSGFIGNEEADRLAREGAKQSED
Procedure: as §1, with “ImageJ. The oligonucleotides were: D2526+([…]; SEQ ID NO:8), D2507-([…]; SEQ ID NO:9), D2453+([…]; SEQ ID NO:10), and D2543M-Sal ([…]; SEQ ID NO:11).” for “ImageJ.”
Therefore, the inventors cloned the human RNAseH1 with an N-terminal hexahistidine tag, expressed it in E. coli, and purified the protein by nickel affinity chromatography. […] This enzyme was active in the oligonucleotide-directed and fluorescent RNAseH assays (FIG. 10B and data not shown). To determine how inhibition of human RNAseH1 compared to inhibition of the HBV RNAseH, the inventor titrated the RNAaseH1 enzyme to yield similar levels of activity as the HBV enzyme, and then the inventor directly compared the ability of compounds #8-12 to inhibit human RNAseH1 and HRHPL at 10 μM. […] Therefore, it is possible to inhibit the HBV RNAseH without inhibiting human RNAseH1.
as §2

[5] = target: T3, chimeric HBV:HIV RNAseH HHC1 (Hepatitis B virus genotype D subtype ayw, UniProt P03156, DELINS787-795[…]/INS679M); assay: Oligonucleotide-directed RNAseH cleavage assay, chimeric HHC1; format: biochemical; details: 10 μM; ± standard deviation, 3 to 7 replicates
T3 construct: HHC1 is an HRHPL derivative; made in house; host or cells: E. coli BL21 codon+
Source text: pCMV-HBV-LE-(CMV-HBV) is an HBV over-length genomic expression vector containing 1.2 copies of the HBV(adw2) genome (Genbank X02763.1) downstream of the CMV promoter cloned into pBS (Promega). Surface protein expression from this vector is ablated by mutating the preS and S open reading frames. pCMV-HBV(genotype D) is an analogous HBV genomic expression construct and was a gift from Dr. Shuping Tong (Brown University). For bacterial expression, codon-optimized cDNA sequences for HRHPL (genotypes A, B, C, D, and H), and noncodon-optimized sequences for HHC1 and HHC2 were cloned by gene synthesis (Genscript) between the NcoI and EcoRI sites into pTrcHis2B (Invitrogen) with a C-terminal hexahistidine tag. HRHPL contains HBV genotype D (Genbank V01460) polymerase residues 684-845. HHC1 is an HRHPL derivative in which HBV polymerase residues 800-808 were replaced with HIV residues corresponding to the RNAseH helix D ([…]; SEQ ID NO:6). HHC2 is an HRHPL derivative in which HBV polymerase residues 800-845 were replaced with HIV residues corresponding to the RNAseH helix D to the C-terminus ([…]; SEQ ID NO:7). The human RNAseH1 gene (NP_002927.2) was cloned with an N-terminal hexahistidine-tag between the BamHI and XhoI sites of pRsetB (Invitrogen) by gene synthesis.
as §1, with “ImageJ. The oligonucleotides were: D2526+([…]; SEQ ID NO:8), D2507-([…]; SEQ ID NO:9), D2453+([…]; SEQ ID NO:10), and D2543M-Sal ([…]; SEQ ID NO:11).” for “ImageJ.”

T3 sequence (P03156 680-786, added parts left off, stated change not applied): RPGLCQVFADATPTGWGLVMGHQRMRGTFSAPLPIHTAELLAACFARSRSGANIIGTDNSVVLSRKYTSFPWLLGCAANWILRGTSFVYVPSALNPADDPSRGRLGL
T1 sequence (P03156 680-832, added parts left off, stated change not applied): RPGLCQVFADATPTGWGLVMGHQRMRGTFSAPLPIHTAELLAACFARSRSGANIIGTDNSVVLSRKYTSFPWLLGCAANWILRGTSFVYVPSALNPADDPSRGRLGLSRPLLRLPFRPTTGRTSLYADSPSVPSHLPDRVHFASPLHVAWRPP

Structure (SMILES) | Activity vs. HBV Genomic Replication [1] | Residual activity at 10 uM, Genotype D [2] [Percent DMSO control] | Activity vs. HBV Biochemical vs. gtD [2] | Residual activity at 10 uM, Genotype H [3] [Percent DMSO control] | Activity vs. human RNAseH1 [4] | Residual activity at 10 uM, HHC1 [5] [Percent DMSO control] | Inhibition of human RNAseH1 ([4]; 10 μM, compared directly with HRHPL) | Inhibition of HBV genotype H RNAseH ([3]; below threshold of irrelevant controls)
O=c1cc2oc3cc(O)c(O)cc3c(-c3ccccc3)c-2cc1O [Compound 31] | − (− no activity at 60 μM) | 26 ± 15 | +++ (+++ inhibition at 10 μM) | 50 ± 10 | +++ (+++ inhibition at 10 μM) | 42 ± 12 | – | –
Cc1sc2nc(-c3ccc([N+](=O)[O-])cc3)[nH]c(=O)c2c1C [Compound 38] | − (− no activity at 60 μM) | 24 ± 1 | +++ (+++ inhibition at 10 μM) | 38 ± 25 | – | 32 ± 4 | – | –
O=c1c(O)c(-c2ccc(O)c(O)c2)oc2cc(O)c(O)c(O)c12 [Compound 7] | − (− no activity at 60 μM) | 45 ± 19 | − (− no inhibition at 60 μM) | 68 ± 24 | +++ (+++ inhibition at 10 μM) | 56 ± 13 | – | –
O=c1c(O)c(-c2cc(O)c(O)c(O)c2)oc2cc(O)cc(O)c12 [Compound 9] | − (− no activity at 60 μM) | 33 ± 10 | ++ (++ inhibition at 20 μM) | 66 ± 23 | ++ (++ inhibition at 20 μM) | 58 ± 15 | inhibited it weakly | –
O=c1cc2oc3cc(O)c(O)cc3c(-c3ccccn3)c-2cc1O [Compound 39] | – | 21 ± 2 | – | 26 ± 0 | – | 60 ± 24 | – | inhibited
O=C(O)c1ccc(-c2cccc(C=NNC(=O)c3cc(O)c(O)c(O)c3)c2)cc1 [Compound 15] | − (− no activity at 60 μM) | 47 ± 4 | − (− no inhibition at 60 μM) | 37 ± 23 | – | 68 ± 6 | – | –
CC(Cc1ccc(O)c(O)c1)C(C)Cc1ccc(O)c(O)c1 (centres unmarked) [Compound 2] | − (− no activity at 60 μM) | 54 ± 18 | − (− no inhibition at 60 μM) | 67 ± 20 | – | 35 ± 6 | – | –
NC(=O)c1c(N)sc2c1CCCCC2 [Compound 3] | − (− no activity at 60 μM) | 43 ± 14 | − (− no inhibition at 60 μM) | 68 ± 14 | – | 60 ± 19 | – | –
COc1ccc2ccccc2c1C=NNC(=O)c1ccc(O)c(O)c1 [Compound 13] | − (− no activity at 60 μM) | 52 ± 12 | − (− no inhibition at 60 μM) | 42 ± 26 | – | 65 ± 14 | – | –
CN(C)c1ccc(-c2c3cc(O)c(=O)cc-3oc3cc(O)c(O)cc23)cc1 [Compound 35] | − (− no activity at 60 μM) | 27 ± 14 | +++ (+++ inhibition at 10 μM) | 38 ± 20 | +++ (+++ inhibition at 10 μM) | 39 ± 9 | – | –
COC(=O)Oc1nsnc1N1CCOCC1 [Compound 4] | − (− no activity at 60 μM) | 35 ± 6 | + (+ inhibition at 60 μM) | 68 ± 18 | – | 37 ± 5 | – | –
